Measured values taken from patent US20050009840A1 (SUGEN, INC., priority 2003, published 2005).

Target: T1, HGFR (Homo sapiens, UniProt P08581)
T1 construct: purchased Upstate 14-526
Experiment: HGFR continuous-coupled spectrophotometric assay
Format: biochemical
Details: at 1 μM; Table 8, library procedure 43; read-out: % Inhibition (percent c-MET inhibition)

T1 sequence (P08581 974-1390 limits assumed): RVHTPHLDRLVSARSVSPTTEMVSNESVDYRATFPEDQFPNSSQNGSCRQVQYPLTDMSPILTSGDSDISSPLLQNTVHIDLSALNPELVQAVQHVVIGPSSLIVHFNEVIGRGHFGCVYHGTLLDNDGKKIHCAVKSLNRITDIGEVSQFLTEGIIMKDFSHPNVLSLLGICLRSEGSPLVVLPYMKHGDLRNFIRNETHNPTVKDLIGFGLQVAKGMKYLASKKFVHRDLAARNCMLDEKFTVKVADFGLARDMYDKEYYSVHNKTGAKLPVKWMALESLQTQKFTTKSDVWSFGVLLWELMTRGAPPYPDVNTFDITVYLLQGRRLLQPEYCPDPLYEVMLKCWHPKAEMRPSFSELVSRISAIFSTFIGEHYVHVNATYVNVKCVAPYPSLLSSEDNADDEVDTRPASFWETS

Compound | inhibition at 1 µM [%]
CC1CN(C(=O)c2ccc(-c3cnc(N)c(OCc4nccn4Cc4ccccc4)c3)cc2)CC(C)N1 (stereo not drawn) | 11
CC1CN(C(=O)c2ccc(-c3cnc(N)c(OCc4ccc(OC(F)(F)F)cc4)c3)cc2)CC(C)N1 (stereo not drawn) | 21
CC1CN(C(=O)c2ccc(-c3cnc(N)c(OCc4nc(CS(=O)(=O)c5ccccn5)no4)c3)cc2)CC(C)N1 (stereo not drawn) | 16
CC1CN(C(=O)c2ccc(-c3cnc(N)c(OCc4cc(-c5c(Cl)cccc5Cl)no4)c3)cc2)CC(C)N1 (stereo not drawn) | 16
CC1CN(C(=O)c2ccc(-c3cnc(N)c(OCc4cccc(OC(F)(F)F)c4)c3)cc2)CC(C)N1 (stereo not drawn) | 17
Cc1cc(COc2cc(-c3ccc(C(=O)N4CC(C)NC(C)C4)cc3)cnc2N)nc(-c2ccc(C(F)(F)F)cn2)n1 (stereo not drawn) | 7
CC1CN(C(=O)c2ccc(-c3cnc(N)c(OCc4ccc(-c5csnn5)cc4)c3)cc2)CC(C)N1 (stereo not drawn) | 17
CC1CN(C(=O)c2ccc(-c3cnc(N)c(OCc4ccc(-c5ccccc5C#N)cc4)c3)cc2)CC(C)N1 (stereo not drawn) | 73
CC1CN(C(=O)c2ccc(-c3cnc(N)c(OCc4ncc(C(F)(F)F)cc4Cl)c3)cc2)CC(C)N1 (stereo not drawn) | 17
Cc1noc(C)c1-c1nc(COc2cc(-c3ccc(C(=O)N4CC(C)NC(C)C4)cc3)cnc2N)no1 (stereo not drawn) | 14
COc1ccccc1-c1nc(COc2cc(-c3ccc(C(=O)N4CC(C)NC(C)C4)cc3)cnc2N)no1 (stereo not drawn) | 9
CC1CN(C(=O)c2ccc(-c3cnc(N)c(OCc4noc(-c5cccc(C(F)(F)F)c5)n4)c3)cc2)CC(C)N1 (stereo not drawn) | 30
CC1CN(C(=O)c2ccc(-c3cnc(N)c(OCc4nsc(Cl)n4)c3)cc2)CC(C)N1 (stereo not drawn) | 6
CC1CN(C(=O)c2ccc(-c3cnc(N)c(OCc4cccc(Oc5ccccc5)c4)c3)cc2)CC(C)N1 (stereo not drawn) | 32
CC1CN(C(=O)c2ccc(-c3cnc(N)c(OCc4ccc(C(=O)N5CCN(Cc6ccccc6)CC5)cc4)c3)cc2)CC(C)N1 (stereo not drawn) | 15
CC1CN(C(=O)c2ccc(-c3cnc(N)c(OCc4cccc(C(=O)NCCc5ccccn5)c4)c3)cc2)CC(C)N1 (stereo not drawn) | 18
CC1CN(C(=O)c2ccc(-c3cnc(N)c(OCc4cccc(C(=O)NC5CCN(Cc6ccccc6)C5)c4)c3)cc2)CC(C)N1 (stereo not drawn) | 18
CC1CN(C(=O)c2ccc(-c3cnc(N)c(OCc4ccc(C(=O)NCCc5ccccn5)cc4)c3)cc2)CC(C)N1 (stereo not drawn) | 19
CCOC(=O)C1CCN(C(=O)c2ccc(COc3cc(-c4ccc(C(=O)N5CC(C)NC(C)C5)cc4)cnc3N)cc2)CC1 (stereo not drawn) | 12
CCOC(=O)CCNC(=O)c1cccc(COc2cc(-c3ccc(C(=O)N4CC(C)NC(C)C4)cc3)cnc2N)c1 (stereo not drawn) | 14
CC1CN(C(=O)c2ccc(-c3cnc(N)c(OCc4ccc(S(=O)(=O)Nc5ccc(F)cc5)cc4)c3)cc2)CC(C)N1 (stereo not drawn) | 14

Compound | inhibition at 1 µM [%]
CC1CN(C(=O)c2ccc(-c3cnc(N)c(OCc4ccc(-c5ccnc(Br)n5)cc4)c3)cc2)CC(C)N1 (stereo not drawn) | 17
CC1CN(C(=O)c2ccc(-c3cnc(N)c(OCc4cccc(-c5ccnc(Br)n5)c4)c3)cc2)CC(C)N1 (stereo not drawn) | 19
CC1CN(C(=O)c2ccc(-c3cnc(N)c(OCc4ccc(S(N)(=O)=O)cc4)c3)cc2)CC(C)N1 (stereo not drawn) | 16
CC1CN(C(=O)c2ccc(-c3cnc(N)c(OCc4ccc(C(=O)c5ccccc5)cc4)c3)cc2)CC(C)N1 (stereo not drawn) | 35
Cc1cc(-c2onc(C)c2COc2cc(-c3ccc(C(=O)N4CC(C)NC(C)C4)cc3)cnc2N)no1 (stereo not drawn) | 25
CC1CN(C(=O)c2ccc(-c3cnc(N)c(OCc4ccc(S(=O)(=O)N5CCOCC5)cc4)c3)cc2)CC(C)N1 (stereo not drawn) | 13
CC1CN(C(=O)c2ccc(-c3cnc(N)c(OCc4ccc(S(=O)(=O)c5ccc(F)cc5)cc4)c3)cc2)CC(C)N1 (stereo not drawn) | 13
CC1CN(C(=O)c2ccc(-c3cnc(N)c(OCc4nc5ccccc5n4C)c3)cc2)CC(C)N1 (stereo not drawn) | 16
CC1CN(C(=O)c2ccc(-c3cnc(N)c(OCc4nc(-c5ccccn5)no4)c3)cc2)CC(C)N1 (stereo not drawn) | 15
Cc1onc(-c2ccccc2)c1COc1cc(-c2ccc(C(=O)N3CC(C)NC(C)C3)cc2)cnc1N (stereo not drawn) | 16
CC1CN(C(=O)c2ccc(-c3cnc(N)c(OCc4c(-c5ccccc5)nn(C)c4Cl)c3)cc2)CC(C)N1 (stereo not drawn) | 18
Cc1ccc(-c2nnc(COc3cc(-c4ccc(C(=O)N5CC(C)NC(C)C5)cc4)cnc3N)o2)cc1 (stereo not drawn) | 14
CC1CN(C(=O)c2ccc(-c3cnc(N)c(OCc4cc(-c5ccccc5)no4)c3)cc2)CC(C)N1 (stereo not drawn) | 16
CC1CN(C(=O)c2ccc(-c3cnc(N)c(OCc4nccn4C)c3)cc2)CC(C)N1 (stereo not drawn) | 12
Cc1nc(COc2cc(-c3ccc(C(=O)N4CC(C)NC(C)C4)cc3)cnc2N)n(C)n1 (stereo not drawn) | 13
CC1CN(C(=O)c2ccc(-c3cnc(N)c(OCc4nnnn4Cc4ccccc4)c3)cc2)CC(C)N1 (stereo not drawn) | 15
CC1CN(C(=O)c2ccc(-c3cnc(N)c(OCc4cc5c(C(F)(F)F)nn(C)c5s4)c3)cc2)CC(C)N1 (stereo not drawn) | 13
CC1CN(C(=O)c2ccc(-c3cnc(N)c(OCc4nc(-c5ccccc5)nn4C)c3)cc2)CC(C)N1 (stereo not drawn) | 13
CC(C)Cc1noc(COc2cc(-c3ccc(C(=O)N4CC(C)NC(C)C4)cc3)cnc2N)n1 (stereo not drawn) | 14
CCOC(=O)c1nc(COc2cc(-c3ccc(C(=O)N4CC(C)NC(C)C4)cc3)cnc2N)no1 (stereo not drawn) | 13

The next lines start with the values.

inhibition at 1 µM [%] | Compound
13 | CC1CN(C(=O)c2ccc(-c3cnc(N)c(OCc4ccc(C#N)cc4)c3)cc2)CC(C)N1 (stereo not drawn)
11 | CC1CN(C(=O)c2ccc(-c3cnc(N)c(OCc4cccc(C#N)c4)c3)cc2)CC(C)N1 (stereo not drawn)
20 | CC1CN(C(=O)c2ccc(-c3cnc(N)c(OCc4ccc(F)cc4F)c3)cc2)CC(C)N1 (stereo not drawn)
25 | CC1CN(C(=O)c2ccc(-c3cnc(N)c(OCc4cc(F)ccc4F)c3)cc2)CC(C)N1 (stereo not drawn)
14 | CC1CN(C(=O)c2ccc(-c3cnc(N)c(OCc4ccc(F)c(F)c4)c3)cc2)CC(C)N1 (stereo not drawn)
12 | CC1CN(C(=O)c2ccc(-c3cnc(N)c(OCc4cc(F)cc(F)c4)c3)cc2)CC(C)N1 (stereo not drawn)
40 | CC1CN(C(=O)c2ccc(-c3cnc(N)c(OCc4cccc(Cl)c4Cl)c3)cc2)CC(C)N1 (stereo not drawn)
27 | Cc1ccc(COc2cc(-c3ccc(C(=O)N4CC(C)NC(C)C4)cc3)cnc2N)cc1Cl (stereo not drawn)
32 | CC1CN(C(=O)c2ccc(-c3cnc(N)c(OCc4cc(Cl)ccc4Cl)c3)cc2)CC(C)N1 (stereo not drawn)
21 | CC1CN(C(=O)c2ccc(-c3cnc(N)c(OCc4cc(F)ccc4Br)c3)cc2)CC(C)N1 (stereo not drawn)
28 | CC1CN(C(=O)c2ccc(-c3cnc(N)c(OCc4cccc(Cl)c4F)c3)cc2)CC(C)N1 (stereo not drawn)
29 | CC1CN(C(=O)c2ccc(-c3cnc(N)c(OCc4ccc(Cl)c(Cl)c4)c3)cc2)CC(C)N1 (stereo not drawn)
20 | CC1CN(C(=O)c2ccc(-c3cnc(N)c(OCc4cc(F)c(F)cc4F)c3)cc2)CC(C)N1 (stereo not drawn)
25 | CC1CN(C(=O)c2ccc(-c3cnc(N)c(OCc4ccc(F)c(F)c4F)c3)cc2)CC(C)N1 (stereo not drawn)
22 | CC1CN(C(=O)c2ccc(-c3cnc(N)c(OCc4ccc(C(F)(F)F)cc4C(F)(F)F)c3)cc2)CC(C)N1 (stereo not drawn)
41 | CC1CN(C(=O)c2ccc(-c3cnc(N)c(OCc4c(F)ccc(F)c4F)c3)cc2)CC(C)N1 (stereo not drawn)
28 | Cc1cccc(COc2cc(-c3ccc(C(=O)N4CC(C)NC(C)C4)cc3)cnc2N)c1F (stereo not drawn)
19 | CC1CN(C(=O)c2ccc(-c3cnc(N)c(OCc4cc(F)cc(C(F)(F)F)c4)c3)cc2)CC(C)N1 (stereo not drawn)
33 | CC1CN(C(=O)c2ccc(-c3cnc(N)c(OCc4c(F)cccc4C(F)(F)F)c3)cc2)CC(C)N1 (stereo not drawn)
11 | CC1CN(C(=O)c2ccc(-c3cnc(N)c(OCc4cc(F)c(F)c(F)c4)c3)cc2)CC(C)N1 (stereo not drawn)

inhibition at 1 µM [%] | Compound
24 | CC1CN(C(=O)c2ccc(-c3cnc(N)c(OCc4ccccc4OC(F)F)c3)cc2)CC(C)N1 (stereo not drawn)
24 | CC1CN(C(=O)c2ccc(-c3cnc(N)c(OCc4ccc(C(F)(F)F)cc4F)c3)cc2)CC(C)N1 (stereo not drawn)
29 | CC1CN(C(=O)c2ccc(-c3cnc(N)c(OCc4ccc(Br)cc4F)c3)cc2)CC(C)N1 (stereo not drawn)
42 | CC1CN(C(=O)c2ccc(-c3cnc(N)c(OCc4cc(Br)cc(Br)c4)c3)cc2)CC(C)N1 (stereo not drawn)
19 | CC1CN(C(=O)c2ccc(-c3cnc(N)c(OCc4cccc(F)c4F)c3)cc2)CC(C)N1 (stereo not drawn)
26 | CC1CN(C(=O)c2ccc(-c3cnc(N)c(OCc4cc(Cl)cc(Cl)c4)c3)cc2)CC(C)N1 (stereo not drawn)
58 | CC1CN(C(=O)c2ccc(-c3cnc(N)c(OCc4ccc5ccccc5c4Br)c3)cc2)CC(C)N1 (stereo not drawn)
25 | CC1CN(C(=O)c2ccc(-c3cnc(N)c(OCc4cc(C(F)(F)F)ccc4Cl)c3)cc2)CC(C)N1 (stereo not drawn)
17 | CC1CN(C(=O)c2ccc(-c3cnc(N)c(OCc4ccc(C(F)(F)F)c(F)c4)c3)cc2)CC(C)N1 (stereo not drawn)
17 | CC1CN(C(=O)c2ccc(-c3cnc(N)c(OCc4cc(F)ccc4C(F)(F)F)c3)cc2)CC(C)N1 (stereo not drawn)
20 | CC1CN(C(=O)c2ccc(-c3cnc(N)c(OCc4ccccc4OC(F)(F)F)c3)cc2)CC(C)N1 (stereo not drawn)
51 | CC1CN(C(=O)c2ccc(-c3cnc(N)c(OCc4c(F)ccc(F)c4Cl)c3)cc2)CC(C)N1 (stereo not drawn)
37 | Cc1ccc(COc2cc(-c3ccc(C(=O)N4CC(C)NC(C)C4)cc3)cnc2N)c(F)c1F (stereo not drawn)
35 | Cc1ccc(F)c(COc2cc(-c3ccc(C(=O)N4CC(C)NC(C)C4)cc3)cnc2N)c1F (stereo not drawn)
16 | Cc1cc(COc2cc(-c3ccc(C(=O)N4CC(C)NC(C)C4)cc3)cnc2N)ccc1F (stereo not drawn)
28 | Cc1ccc(F)cc1COc1cc(-c2ccc(C(=O)N3CC(C)NC(C)C3)cc2)cnc1N (stereo not drawn)
21 | CC1CN(C(=O)c2ccc(-c3cnc(N)c(OCc4cccc(Br)c4)c3)cc2)CC(C)N1 (stereo not drawn)
17 | CC1CN(C(=O)c2ccc(-c3cnc(N)c(OCc4cccc5cccnc45)c3)cc2)CC(C)N1 (stereo not drawn)
10 | CC1CN(C(=O)c2ccc(-c3cnc(N)c(OCc4nc5ccc(Cl)cc5[nH]4)c3)cc2)CC(C)N1 (stereo not drawn)
29 | CC1CN(C(=O)c2ccc(-c3cnc(N)c(OCc4ccc(Cl)cc4Br)c3)cc2)CC(C)N1 (stereo not drawn)
